This passage reports inhibition results from paper PMC6934184, “Selective DNA-PKcs inhibition extends the therapeutic index of localized radiotherapy and chemotherapy” (The Journal of Clinical Investigation, 2019).

This assay has as its target T1, DAPK2 (Homo sapiens, UniProt Q9UIK4).
T1 construct: purchased Thermo Fisher Scientific (Life Technologies) SelectScreen
Kind of assay: SelectScreen LanthaScreen. Format: binding. To be noted: read-out: % displacement. The method, boiled down:
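Percent values come from Thermo SelectScreen profiling of NU5455, combining activity and binding assays. CSF1R was run in Z'LYTE format at Km app ATP, and CAMK1 in Adapta format with ATP listed at 10.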
On the technique in general: TR-FRET usually uses a lanthanide donor and a delayed reading to cut background.

T1 sequence (Q9UIK4 whole entry): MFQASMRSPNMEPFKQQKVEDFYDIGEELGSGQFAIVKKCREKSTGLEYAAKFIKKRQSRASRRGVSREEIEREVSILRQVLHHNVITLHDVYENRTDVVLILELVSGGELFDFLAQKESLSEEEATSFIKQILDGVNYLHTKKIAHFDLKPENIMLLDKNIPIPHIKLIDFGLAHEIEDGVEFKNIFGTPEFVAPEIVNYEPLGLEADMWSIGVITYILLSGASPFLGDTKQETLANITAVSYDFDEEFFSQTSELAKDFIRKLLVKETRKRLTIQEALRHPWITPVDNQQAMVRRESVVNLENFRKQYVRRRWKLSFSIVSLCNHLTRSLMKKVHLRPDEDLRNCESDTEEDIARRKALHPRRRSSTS

For `CN(C(=O)CN1CCOCC1)c1ccc2sc3c(-c4cccc5c(=O)cc(N6CC7CCC(C6)O7)oc45)cccc3c2c1` [NU5455], the inhibition at 1 µM stood at 2.9%.
